Patent publication US6737383B1, “Herbicidal oxadiazolidines” (priority 1999, dated 2004)

Key:
bedstraw = test: Test B pre/postemergence bedstraw; format: in vivo, Galium aparine
Procedure, shortened: (§1)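 Test chemicals in a non-phytotoxic solvent mixture with surfactant were sprayed preemergence onto planted seeds and postemergence onto plants 2 to 18 cm tall (1- to 4-leaf stage). After twelve to sixteen days in a greenhouse, injury was visually rated against untreated controls from 0 (no effect) to 10 (complete control).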

blackgrass = test: Test B pre/postemergence blackgrass; format: in vivo, Alopecurus myosuroides
Procedure, shortened: as §1

surinam grass = test: Test B pre/postemergence surinam grass; format: in vivo, Brachiaria decumbens
Procedure, shortened: as §1

cocklebur = test: Test B pre/postemergence cocklebur; format: in vivo, Xanthium strumarium; conditions: for Cocklebur plant response rating: Postemergence; for Plant response rating, Cocklebur: Preemergence
Procedure, shortened: as §1

corn = test: Test B pre/postemergence corn; format: in vivo, Zea mays
Procedure, shortened: as §1

crabgrass = test: Test B pre/postemergence crabgrass; format: in vivo, Digitaria sanguinalis
Procedure, shortened: as §1

giant foxtail = test: Test B pre/postemergence giant foxtail; format: in vivo, Setaria faberii
Procedure, shortened: as §1

morningglory = test: Test B pre/postemergence morningglory; format: in vivo, Ipomoea hederacea
Procedure, shortened: as §1

pigweed = test: Test B pre/postemergence pigweed; format: in vivo, Amaranthus retroflexus
Procedure, shortened: as §1

rape = test: Test B pre/postemergence rape; format: in vivo, Brassica napus
Procedure, shortened: as §1

soybean = test: Test B pre/postemergence soybean; format: in vivo, Glycine max
Procedure, shortened: as §1

sugar beet = test: Test B pre/postemergence sugar beet; format: in vivo, Beta vulgaris
Procedure, shortened: as §1

velvetleaf = test: Test B pre/postemergence velvetleaf; format: in vivo, Abutilon theophrasti
Procedure, shortened: as §1

wheat = test: Test B pre/postemergence wheat; format: in vivo, Triticum aestivum
Procedure, shortened: as §1

wild oat = test: Test B pre/postemergence wild oat; format: in vivo, Avena fatua
Procedure, shortened: as §1

purple nutsedge = test: Test B pre/postemergence purple nutsedge; format: in vivo, Cyperus rotundus
Procedure, shortened: as §1

duck salad = test: Test B flood test duck salad; format: in vivo, Heteranthera limosa; conditions: Rate 125 g/ha; Postemergence section (flood test species); scale 0 to 10, 0 no effect, 10 complete control
Method: At the same time, these crop and weed species were also treated with postemergence applications of test chemicals formulated in the same manner. Plants ranged in height from 2 to 18 cm (1- to 4-leaf stage) for postemergence treatments. Plant species in the flood test consisted of rice (Oryza sativa), smallflower flatsedge (Cyperus difformis), duck salad (Heteranthera limosa) and bamyardgrass (Echinochloa crus-galli) grown to the 2-leaf stage for testing. Treated plants and controls were maintained in a greenhouse for twelve to sixteen days, after which all species were compared to controls and visually evaluated. Plant response ratings, summarized in Table B, are based on a scale of 0 to 10 where 0 is no effect and 10 is complete control. A dash (−) response means no test result.

[1] = Postemergence, Rate 62 g/ha, scale 0 to 10, 0 is no effect, 10 is complete control
[2] = Postemergence, Rate 250 g/ha, scale 0 to 10, 0 no effect, 10 complete control
[3] = Preemergence, Rate 62 g/ha, scale 0 to 10, 0 is no effect, 10 is complete control
[4] = Preemergence, Rate 125 g/ha, scale 0 to 10 (0 no effect, 10 complete control)
[5] = Preemergence, Rate 250 g/ha, scale of 0 to 10 where 0 is no effect and 10 is complete control
[6] = Preemergence, Rate 500 g/ha, scale 0 (no effect) to 10 (complete control)
[7] = Rate 125 g/ha, Postemergence, scale 0 to 10, 0 no effect, 10 complete control
[8] = Rate 500 g/ha, Postemergence, 0 to 10 scale (0 no effect, 10 complete control)
[9] = Rate 62 g/ha, scale 0 to 10, 0 is no effect, 10 is complete control

Cc1ccccc1-n1c(=O)on(C(=O)N(c2ccc(F)cc2)C2CC2)c1=O [Compound 37]
Bedstraw plant response rating (bedstraw; [1]): 0 | Bedstraw plant response rating (bedstraw; [2]): 0 | Plant response rating, Bedstraw (bedstraw; [3]): 0 | Plant response rating, Bedstraw (bedstraw; [4]): 0 | Plant response rating, Bedstraw (bedstraw; [5]): 0 | Bedstraw plant response rating (bedstraw; [6]): 0 | Bedstraw plant response rating (bedstraw; [7]): 0 | Bedstraw plant response rating (bedstraw; [8]): 0 | Blackgrass plant response rating (blackgrass; [1]): 0 | Blackgrass plant response rating (blackgrass; [2]): 0 | Plant response rating, Blackgrass (blackgrass; [3]): 0 | Plant response rating, Blackgrass (blackgrass; [4]): 0 | Plant response rating, Blackgrass (blackgrass; [5]): 0 | Blackgrass plant response rating (blackgrass; [6]): 0 | Blackgrass plant response rating (blackgrass; [7]): 0 | Blackgrass plant response rating (blackgrass; [8]): 0 | B. signalgrass plant response rating (surinam grass; [1]): 0 | B. signalgrass plant response rating (surinam grass; [2]): 0 | Plant response rating, B. signalgrass (surinam grass; [3]): 0 | Plant response rating, B. signalgrass (surinam grass; [4]): 0 | Plant response rating, B. signalgrass (surinam grass; [5]): 0 | B. signalgrass plant response rating (surinam grass; [6]): 0 | B. signalgrass plant response rating (surinam grass; [7]): 0 | B. signalgrass plant response rating (surinam grass; [8]): 0 | Cocklebur plant response rating (cocklebur; [9]): 0 | Cocklebur plant response rating (cocklebur; Rate 250 g/ha, scale 0 to 10, 0 no effect, 10 complete control): 0 | Plant response rating, Cocklebur (cocklebur; [9]): 0 | Plant response rating, Cocklebur (cocklebur; Rate 125 g/ha, scale 0 to 10 (0 no effect, 10 complete control)): 0 | Plant response rating, Cocklebur (cocklebur; Rate 250 g/ha, scale of 0 to 10 where 0 is no effect and 10 is complete control): 0 | Cocklebur plant response rating (cocklebur; Rate 125 g/ha, scale 0 to 10, 0 no effect, 10 complete control): 0 | Cocklebur plant response rating (cocklebur; Rate 500 g/ha, 0 to 10 scale (0 no effect, 10 complete control)): 1 | Corn plant response rating (corn; [1]): 0 | Corn plant response rating (corn; [2]): 0 | Plant response rating, Corn (corn; [3]): 0 | Plant response rating, Corn (corn; [4]): 0 | Plant response rating, Corn (corn; [5]): 0 | Corn plant response rating (corn; [6]): 0 | Corn plant response rating (corn; [7]): 0 | Corn plant response rating (corn; [8]): 0 | Crabgrass plant response rating (crabgrass; [1]): 0 | Crabgrass plant response rating (crabgrass; [2]): 0 | Plant response rating, Crabgrass (crabgrass; [3]): 0 | Plant response rating, Crabgrass (crabgrass; [4]): 0 | Plant response rating, Crabgrass (crabgrass; [5]): 3 | Crabgrass plant response rating (crabgrass; [6]): 5 | Crabgrass plant response rating (crabgrass; [7]): 0 | Crabgrass plant response rating (crabgrass; [8]): 3 | Giant foxtail plant response rating (giant foxtail; [1]): 0 | Giant foxtail plant response rating (giant foxtail; [2]): 0 | Plant response rating, Giant foxtail (giant foxtail; [3]): 0 | Plant response rating, Giant foxtail (giant foxtail; [4]): 0 | Plant response rating, Giant foxtail (giant foxtail; [5]): 2 | Giant foxtail plant response rating (giant foxtail; [6]): 3 | Giant foxtail plant response rating (giant foxtail; [7]): 0 | Giant foxtail plant response rating (giant foxtail; [8]): 0 | Morningglory plant response rating (morningglory; [1]): 0 | Morningglory plant response rating (morningglory; [2]): 0 | Plant response rating, Morningglory (morningglory; [3]): 0 | Plant response rating, Morningglory (morningglory; [4]): 0 | Plant response rating, Morningglory (morningglory; [5]): 0 | Morningglory plant response rating (morningglory; [6]): 0 | Morningglory plant response rating (morningglory; [7]): 0 | Morningglory plant response rating (morningglory; [8]): 1 | Redroot pigweed plant response rating (pigweed; [1]): 0 | Redroot pigweed plant response rating (pigweed; [2]): 0 | Plant response rating, Redroot pigweed (pigweed; [3]): 0 | Plant response rating, Redroot pigweed (pigweed; [4]): 0 | Plant response rating, Redroot pigweed (pigweed; [5]): 0 | Redroot pigweed plant response rating (pigweed; [6]): 0 | Redroot pigweed plant response rating (pigweed; [7]): 0 | Redroot pigweed plant response rating (pigweed; [8]): 0 | Rape plant response rating (rape; [1]): 0 | Rape plant response rating (rape; [2]): 0 | Plant response rating, Rape (rape; [3]): 0 | Plant response rating, Rape (rape; [4]): 0 | Plant response rating, Rape (rape; [5]): 0 | Rape plant response rating (rape; [6]): 0 | Rape plant response rating (rape; [7]): 0 | Rape plant response rating (rape; [8]): 0 | Soybean plant response rating (soybean; [1]): 0 | Soybean plant response rating (soybean; [2]): 0 | Plant response rating, Soybean (soybean; [3]): 0 | Plant response rating, Soybean (soybean; [4]): 0 | Plant response rating, Soybean (soybean; [5]): 0 | Soybean plant response rating (soybean; [6]): 0 | Soybean plant response rating (soybean; [7]): 0 | Sugarbeets plant response rating (sugar beet; [1]): 0 | Sugarbeets plant response rating (sugar beet; [2]): 0 | Plant response rating, Sugarbeets (sugar beet; [3]): 0 | Plant response rating, Sugarbeets (sugar beet; [4]): 0 | Plant response rating, Sugarbeets (sugar beet; [5]): 0 | Sugarbeets plant response rating (sugar beet; [6]): 0 | Sugarbeets plant response rating (sugar beet; [7]): 0 | Velvetleaf plant response rating (velvetleaf; [1]): 0 | Velvetleaf plant response rating (velvetleaf; [2]): 0 | Plant response rating, Velvetleaf (velvetleaf; [3]): 0 | Plant response rating, Velvetleaf (velvetleaf; [4]): 0 | Plant response rating, Velvetleaf (velvetleaf; [5]): 0 | Velvetleaf plant response rating (velvetleaf; [6]): 0 | Velvetleaf plant response rating (velvetleaf; [7]): 0 | Wheat plant response rating (wheat; [1]): 0 | Wheat plant response rating (wheat; [2]): 0 | Plant response rating, Wheat (wheat; [3]): 0 | Plant response rating, Wheat (wheat; [4]): 0 | Plant response rating, Wheat (wheat; [5]): 0 | Wheat plant response rating (wheat; [6]): 0 | Wheat plant response rating (wheat; [7]): 0 | Wild oats plant response rating (wild oat; [1]): 0 | Wild oats plant response rating (wild oat; [2]): 0 | Plant response rating, Wild oats (wild oat; [4]): 0 | Plant response rating, Wild oats (wild oat; [5]): 0 | Wild oats plant response rating (wild oat; [6]): 0 | Wild oats plant response rating (wild oat; [7]): 0 | Nutsedge plant response rating (purple nutsedge; [1]): 0 | Nutsedge plant response rating (purple nutsedge; [2]): 0 | Plant response rating, Nutsedge (purple nutsedge; [3]): 0 | Plant response rating, Nutsedge (purple nutsedge; [4]): 0 | Plant response rating, Nutsedge (purple nutsedge; [5]): 0 | Nutsedge plant response rating (purple nutsedge; [6]): 0 | Nutsedge plant response rating (purple nutsedge; [7]): 0 | Ducksalad plant response rating (duck salad): 0
